Measurements from patent US12404244B2, “Pan-KIT kinase inhibitor having quinoline structure and application thereof” (Tarapeutics Science Inc., priority 2018, dated 2025).
Where two headings read alike, the source gives them in different places.

Key:
Type in all cases: cell-based
TEL-KIT/D820Y-BaF3 = assay: Proliferation of TEL-KIT/D820Y-BaF3 cells (CCK-8); settings: Mus musculus, read-out: GI50 TEL-KIT/D820Y-BaF3
Description: (§1) Compounds as provided herein were further evaluated for their inhibitory effects on proliferation of cancer cells by testing their effects on growth of cancer cells. In this example the following cells were used: primary mouse B cells BaF3 (purchased from ATCC), GIST-T1 cells of the human gastrointestinal stromal tumor cell line (expressing wild-type KIT gene) (purchased from Cosmo Bio Co., Ltd. (Japan)). The present lab further constructed and used the following: mouse Tel-Kit-BaF3 (stably expressing KIT wild-type kinase), mouse Tel-Kit/T670I-BaF3 (stably expressing KIT T670I mutant kinase), mouse Tel-Kit/V559A-BaF3 (stably expressing KIT V559A mutant kinase), mouse Tel-Kit/V559D-BaF3 (stably expressing KIT V559D mutant kinase), mouse Tel-Kit/V559G-BaF3 (stably expressing KIT V559G mutant kinase), mouse Tel-Kit/V560D-BaF3 (stably expressing KIT V560D mutant kinase), mouse Tel-Kit/L576P-BaF3 (stably expressing KIT L576P mutant kinase), mouse Tel-Kit/V654A-BaF3 (stably expressing KIT V654A mutant kinase), mouse Tel-Kit/V654A/V559D-BaF3 (stably expressing KIT V654A V559D mutant kinase), mouse Tel-Kit/T670E-BaF3 (stably expressing KIT T670E mutant kinase), mouse Tel-Kit/T670I/V559D-BaF3 (stably expressing KIT T670I V559D mutant kinase), mouse Tel-Kit/S709F-BaF3 (stably expressing KIT S709F mutant kinase), mouse Tel-Kit/D816E-BaF3 (stably expressing KIT D816E mutant kinase), mouse Tel-Kit/D816H-BaF3 (stably expressing KIT D816H mutant kinase), mouse Tel-Kit/D820E-BaF3 (stably expressing KIT D820E mutant kinase), mouse Tel-Kit/D820G-BaF3 (stably expressing KIT D820G mutant kinase), mouse Tel-Kit/D820Y-BaF3 (stably expressing KIT D820Y mutant kinase), mouse Tel-Kit/N822K-BaF3 (stably expressing KIT N822K mutant kinase), mouse Tel-Kit/Y823D-BaF3 (stably expressing KIT Y823D mutant kinase), mouse Tel-Kit/A829P-BaF3 (stably expressing KIT A829P mutant kinase), GIST-T1-T670I cells of the human gastrointestinal stromal tumor cell line (expressing KIT-T670I mutant gene). The above cell lines were constructed by: amplifying respectively the sequences of human KIT and various mutant kinase regions of KIT via PCR, inserting the fragments respectively into MSCV-Puro vectors having a N-terminal TEL fragment and/or a NPM fragment and/or a TPR fragment (purchased from Clontech), transfecting mouse BaF3 cells with the vectors by means of retrovirus to obtain stably transfected cells, removing the growth factor IL-3, and thereby eventually obtaining cell lines that depend on the transferred protein KIT or various mutants of KIT. […]

TEL-KIT/T670I/V559D-BaF3 = assay: Proliferation of TEL-KIT/T670I/V559D-BaF3 cells (CCK-8); settings: Mus musculus, read-out: GI50 TEL-KIT/T670I/V559D-BaF3
Description: as §1

TEL-KIT/Y823D-BaF3 = assay: Proliferation of TEL-KIT/Y823D-BaF3 cells (CCK-8); settings: Mus musculus, read-out: GI50 TEL-KIT/Y823D-BaF3
Description: as §1

TEL-KIT/N822K-BaF3 = assay: Proliferation of TEL-KIT/N822K-BaF3 cells (CCK-8); settings: Mus musculus, read-out: GI50 TEL-KIT/N822K-BaF3
Description: as §1

TEL-KIT/V654A/V559D-BaF3 = assay: Proliferation of TEL-KIT/V654A/V559D-BaF3 cells (CCK-8); settings: Mus musculus, read-out: GI50 TEL-KIT/V654A/V559D-BaF3
Description: as §1

TEL-KIT/V559A-BaF3 = assay: Proliferation of TEL-KIT/V559A-BaF3 cells (CCK-8); settings: Mus musculus, read-out: GI50 TEL-KIT/V559A-BaF3
Description: as §1

TEL-KIT/D820G-BaF3 = assay: Proliferation of TEL-KIT/D820G-BaF3 cells (CCK-8); settings: Mus musculus, read-out: GI50 TEL-KIT/D820G-BaF3
Description: as §1

| SMILES | GI50 (TEL-KIT/D820Y-BaF3; 72 hours, CCK-8) | GI50 (TEL-KIT/T670I/V559D-BaF3; 72 hours, CCK-8) | GI50 (TEL-KIT/Y823D-BaF3; 72 hours, CCK-8) | GI50 (TEL-KIT/N822K-BaF3; 72 hours, CCK-8) | GI50 (TEL-KIT/V654A/V559D-BaF3; 72 hours, CCK-8) | GI50 (TEL-KIT/V559A-BaF3; 72 hours, CCK-8) | GI50 (TEL-KIT/D820G-BaF3; 72 hours, CCK-8) | GI50 (TEL-KIT/D820Y-BaF3; 72 h) | GI50 (TEL-KIT/T670I/V559D-BaF3; 72 h) | GI50 (TEL-KIT/Y823D-BaF3; 72 h) | GI50 (TEL-KIT/N822K-BaF3; 72 h) | GI50 (TEL-KIT/V654A/V559D-BaF3; 72 h) | GI50 (TEL-KIT/V559A-BaF3; 72 h) | GI50 (TEL-KIT/D820G-BaF3; 72 h) |
| --- | --- | --- | --- | --- | --- | --- | --- | --- | --- | --- | --- | --- | --- | --- |
| CCN(CC)CCNC(=O)c1c(C)[nH]c(/C=C2\C(=O)Nc3ccc(F)cc32)c1C [Sunitinib, reference compound] | 0.172 µM | 0.012 µM | 0.704 µM | 0.384 µM | 0.019 µM | 0.02 µM | 0.389 µM | – | – | – | – | – | – | – |
| COc1cc2nccc(Oc3ccc(NC(=O)Cc4ccc(C)c(C(F)(F)F)c4)cc3)c2cc1OC [Example 1, N-(4-((6,7-dimethoxyquinolin-4-yl)oxy)phenyl)-2-(4-methyl-3-(trifluoromethyl)phenyl)acetamide] | – | – | – | – | – | – | – | 0.006 µM | 0.048 µM | 0.015 µM | 0.069 µM | 0.039 µM | 0.016 µM | 0.009 µM |
| COc1cc2nccc(Oc3ccc(NC(=O)Cc4ccc(Cl)c(C(F)(F)F)c4)cc3)c2cc1OC [Example 2, N-(4-((6,7-dimethoxyquinolin-4-yl)oxy)phenyl)-2-(4-chloro-3-(trifluoromethyl)phenyl)-acetamide] | 0.003 µM | 0.045 µM | 0.035 µM | 0.026 µM | 0.042 µM | 0.021 µM | 0.009 µM | – | – | – | – | – | – | – |
